PubChem BioAssay (NCI)
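Protocol summary: plate cells (96-well), add compound at 5 concentrations, incubate 48 h, interpolate endpoints linearly. GI50: concentration for 50% inhibition of growth. TGI: total growth inhibition.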

Experiments:
Experiment in all cases: NCI tumour cell line growth inhibition, 48 h
786-0 renal = test system: 786-0 renal
A498 renal = test system: A498 renal
A549 NSCLC = test system: A549 NSCLC
ACHN renal = test system: ACHN renal
BT-549 breast = test system: BT-549 breast
CAKI-1 renal = test system: CAKI-1 renal
CCRF-CEM leukemia = test system: CCRF-CEM leukemia
COLO 205 colon = test system: COLO 205 colon
DU-145 prostate = test system: DU-145 prostate
EKVX NSCLC = test system: EKVX NSCLC
HCC-2998 colon = test system: HCC-2998 colon
HCT-116 colon = test system: HCT-116 colon
HCT-15 colon = test system: HCT-15 colon
HL-60(TB) leukemia = test system: HL-60(TB) leukemia
HOP-62 NSCLC = test system: HOP-62 NSCLC
HOP-92 NSCLC = test system: HOP-92 NSCLC
HS 578T breast = test system: HS 578T breast
HT29 colon = test system: HT29 colon
IGROV1 ovarian = test system: IGROV1 ovarian
K-562 leukemia = test system: K-562 leukemia
KM12 colon = test system: KM12 colon
LOX IMVI melanoma = test system: LOX IMVI melanoma
M14 melanoma = test system: M14 melanoma
MALME-3M melanoma = test system: MALME-3M melanoma
MCF7 breast = test system: MCF7 breast
MDA-MB-231 breast = test system: MDA-MB-231 breast
MDA-MB-435 = test system: MDA-MB-435
MDA-MB-468 breast = test system: MDA-MB-468 breast
MOLT-4 leukemia = test system: MOLT-4 leukemia
NCI-H226 lung = test system: NCI-H226 lung
NCI-H23 lung = test system: NCI-H23 lung
NCI-H460 lung = test system: NCI-H460 lung
NCI-H522 lung = test system: NCI-H522 lung
NCI/ADR-RES ovarian = test system: NCI/ADR-RES ovarian
OVCAR-3 ovarian = test system: OVCAR-3 ovarian
OVCAR-4 ovarian = test system: OVCAR-4 ovarian
OVCAR-5 ovarian = test system: OVCAR-5 ovarian
OVCAR-8 ovarian = test system: OVCAR-8 ovarian
PC-3 prostate = test system: PC-3 prostate
RPMI-8226 leukemia = test system: RPMI-8226 leukemia
RXF 393 renal = test system: RXF 393 renal
SF-268 CNS = test system: SF-268 CNS
SF-295 CNS = test system: SF-295 CNS
SF-539 CNS = test system: SF-539 CNS
SK-MEL-2 melanoma = test system: SK-MEL-2 melanoma
SK-MEL-28 melanoma = test system: SK-MEL-28 melanoma
SK-MEL-5 melanoma = test system: SK-MEL-5 melanoma
SK-OV-3 ovarian = test system: SK-OV-3 ovarian
SN12C renal = test system: SN12C renal
SNB-19 CNS = test system: SNB-19 CNS
SNB-75 CNS = test system: SNB-75 CNS
SW-620 colon = test system: SW-620 colon
T-47D breast = test system: T-47D breast
TK-10 renal = test system: TK-10 renal
U251 CNS = test system: U251 CNS
UACC-257 melanoma = test system: UACC-257 melanoma
UACC-62 melanoma = test system: UACC-62 melanoma
UO-31 renal = test system: UO-31 renal

COc1ccc(-c2cc(C(=O)N=Nc3c(O)[nH]c4ccc(Cl)cc34)c3ccccc3n2)cc1
GI50 (786-0 renal): 19.8 µM | TGI (786-0 renal): 43.7 µM | GI50 (A498 renal): 21 µM | TGI (A498 renal): 36.1 µM | GI50 (A549 NSCLC): 5.56 µM | TGI (A549 NSCLC): 31.9 µM | GI50 (ACHN renal): 10.1 µM | TGI (ACHN renal): 23.2 µM | GI50 (BT-549 breast): 22 µM | TGI (BT-549 breast): 43 µM | GI50 (CAKI-1 renal): 11.7 µM | TGI (CAKI-1 renal): 26.4 µM | GI50 (CCRF-CEM leukemia): 3.32 µM | TGI (CCRF-CEM leukemia): > 100 µM | GI50 (COLO 205 colon): 15 µM | TGI (COLO 205 colon): 35.3 µM | GI50 (DU-145 prostate): 15.3 µM | TGI (DU-145 prostate): 29.7 µM | GI50 (EKVX NSCLC): 11.4 µM | TGI (EKVX NSCLC): 27.1 µM | GI50 (HCC-2998 colon): 15 µM | TGI (HCC-2998 colon): 31.4 µM | GI50 (HCT-116 colon): 5.3 µM | TGI (HCT-116 colon): 63.7 µM | GI50 (HCT-15 colon): 2.81 µM | TGI (HCT-15 colon): 10.2 µM | GI50 (HL-60(TB) leukemia): 9.57 µM | TGI (HL-60(TB) leukemia): > 100 µM | GI50 (HOP-62 NSCLC): 3.96 µM | TGI (HOP-62 NSCLC): 25.7 µM | GI50 (HOP-92 NSCLC): 11.6 µM | TGI (HOP-92 NSCLC): 32.9 µM | GI50 (HS 578T breast): 16.6 µM | TGI (HS 578T breast): 69.2 µM | GI50 (HT29 colon): 4.63 µM | TGI (HT29 colon): 31.2 µM | GI50 (IGROV1 ovarian): 13.1 µM | TGI (IGROV1 ovarian): 30.1 µM | GI50 (K-562 leukemia): 3.14 µM | TGI (K-562 leukemia): > 100 µM | GI50 (KM12 colon): 21.6 µM | TGI (KM12 colon): 57.3 µM | GI50 (LOX IMVI melanoma): 3.23 µM | TGI (LOX IMVI melanoma): 13.3 µM | GI50 (M14 melanoma): 11 µM | TGI (M14 melanoma): 41.9 µM | GI50 (MALME-3M melanoma): 14.4 µM | TGI (MALME-3M melanoma): 28.5 µM | GI50 (MCF7 breast): 5.32 µM | TGI (MCF7 breast): 28.2 µM | GI50 (MDA-MB-231 breast): 5.13 µM | TGI (MDA-MB-231 breast): 18.1 µM | GI50 (MDA-MB-435): 14.8 µM | TGI (MDA-MB-435): 30.7 µM | GI50 (MDA-MB-468 breast): 6.78 µM | TGI (MDA-MB-468 breast): 25.9 µM | GI50 (MOLT-4 leukemia): 3.88 µM | TGI (MOLT-4 leukemia): > 100 µM | GI50 (NCI-H226 lung): 14.3 µM | TGI (NCI-H226 lung): 55.1 µM | GI50 (NCI-H23 lung): 6.43 µM | TGI (NCI-H23 lung): 30.8 µM | GI50 (NCI-H460 lung): 11.5 µM | TGI (NCI-H460 lung): 39.7 µM | GI50 (NCI-H522 lung): 16.5 µM | TGI (NCI-H522 lung): 39.4 µM | GI50 (NCI/ADR-RES ovarian): 12 µM | TGI (NCI/ADR-RES ovarian): 47.3 µM | GI50 (OVCAR-3 ovarian): 11.8 µM | TGI (OVCAR-3 ovarian): 26.4 µM | GI50 (OVCAR-4 ovarian): 13 µM | TGI (OVCAR-4 ovarian): 43.3 µM | GI50 (OVCAR-5 ovarian): 12.2 µM | TGI (OVCAR-5 ovarian): 26.4 µM | GI50 (OVCAR-8 ovarian): 10.2 µM | TGI (OVCAR-8 ovarian): 35.9 µM | GI50 (PC-3 prostate): 12 µM | TGI (PC-3 prostate): > 100 µM | GI50 (RPMI-8226 leukemia): 14.7 µM | TGI (RPMI-8226 leukemia): > 100 µM | GI50 (RXF 393 renal): 12.1 µM | TGI (RXF 393 renal): 25.7 µM | GI50 (SF-268 CNS): 16.2 µM | TGI (SF-268 CNS): 37.6 µM | GI50 (SF-295 CNS): 13.7 µM | TGI (SF-295 CNS): 29.4 µM | GI50 (SF-539 CNS): 15.5 µM | TGI (SF-539 CNS): 29.8 µM | GI50 (SK-MEL-2 melanoma): 19.3 µM | TGI (SK-MEL-2 melanoma): 35.8 µM | GI50 (SK-MEL-28 melanoma): 14.7 µM | TGI (SK-MEL-28 melanoma): 30 µM | GI50 (SK-MEL-5 melanoma): 15.5 µM | TGI (SK-MEL-5 melanoma): 30.8 µM | GI50 (SK-OV-3 ovarian): 15.8 µM | TGI (SK-OV-3 ovarian): 33.1 µM | GI50 (SN12C renal): 13.9 µM | TGI (SN12C renal): 32 µM | GI50 (SNB-19 CNS): 17.4 µM | TGI (SNB-19 CNS): 32 µM | GI50 (SNB-75 CNS): 12.9 µM | TGI (SNB-75 CNS): 27.6 µM | GI50 (SW-620 colon): 3.09 µM | TGI (SW-620 colon): 19.4 µM | GI50 (T-47D breast): 11.8 µM | TGI (T-47D breast): 42.3 µM | GI50 (TK-10 renal): 23.9 µM | TGI (TK-10 renal): 42.3 µM | GI50 (U251 CNS): 3.57 µM | TGI (U251 CNS): 16.2 µM | GI50 (UACC-257 melanoma): 16.6 µM | TGI (UACC-257 melanoma): 32.6 µM | GI50 (UACC-62 melanoma): 14.8 µM | TGI (UACC-62 melanoma): 30.4 µM | GI50 (UO-31 renal): 11.5 µM | TGI (UO-31 renal): 24.1 µM
